Experimental data from the kinase profiling compilation of Christmann-Franck et al. (2016).

Columns and labels:
Assay in all cases: radiometric filter-binding kinase assay, Kinase HotSpot
Details in all cases: compound 0.5 µM; ATP 10 µM
NUAK2 (human) = NUAK2 (human) (UniProt Q9H093)
CAMK2A (human) = CAMK2A (human) (UniProt Q9UQM7)
ALK (human) = ALK (human) (UniProt Q9UM73)
STK3 (human) = STK3 (human) (UniProt Q13188)
PIM1 (human) = PIM1 (human) (UniProt P11309)
MATK (human) = MATK (human) (UniProt P42679)
STK17A (human) = STK17A (human) (UniProt Q9UEE5)
PAK6 (human) = PAK6 (human) (UniProt Q9NQU5)
DYRK2 (human) = DYRK2 (human) (UniProt Q92630)
CLK2 (human) = CLK2 (human) (UniProt P49760)
HIPK4 (human) = HIPK4 (human) (UniProt Q8NE63)
RPS6KB2 (human) = RPS6KB2 (human) (UniProt Q9UBS0)
GRK7 (human) = GRK7 (human) (UniProt Q8WTQ7)
KIT (human) = KIT (human) (UniProt P10721)
PHKG2 (human) = PHKG2 (human) (UniProt P15735)
MKNK2 (human) = MKNK2 (human) (UniProt Q9HBH9)
ZAP70 (human) = ZAP70 (human) (UniProt P43403)
EPHA4 (human) = EPHA4 (human) (UniProt P54764)
BRAF (human) = BRAF (human) (UniProt P15056)
CDK6 CCND3 (human) = CDK6 CCND3 (human) (UniProt P30281+Q00534)
RPS6KA3 KD1 KD2 (human) = RPS6KA3 KD1 KD2 (human) (UniProt P51812)
AURKB (human) = AURKB (human) (UniProt Q96GD4)
CHEK2 (human) = CHEK2 (human) (UniProt O96017)
DMPK (human) = DMPK (human) (UniProt Q09013)
TXK (human) = TXK (human) (UniProt P42681)
SRPK2 (human) = SRPK2 (human) (UniProt P78362)
EGFR (human) = EGFR (human) (UniProt P00533)
VRK1 (human) = VRK1 (human) (UniProt Q99986)
NLK (human) = NLK (human) (UniProt Q9UBE8)
AXL (human) = AXL (human) (UniProt P30530)
BTK (human) = BTK (human) (UniProt Q06187)
MYLK (human) = MYLK (human) (UniProt Q15746)
ULK1 (human) = ULK1 (human) (UniProt O75385)
CDC42BPA (human) = CDC42BPA (human) (UniProt Q5VT25)
PKN2 (human) = PKN2 (human) (UniProt Q16513)
MAPK14 (human) = MAPK14 (human) (UniProt Q16539)
MELK (human) = MELK (human) (UniProt Q14680)
PAK4 (human) = PAK4 (human) (UniProt O96013)
TAOK3 (human) = TAOK3 (human) (UniProt Q9H2K8)
CDK6 CCND1 (human) = CDK6 CCND1 (human) (UniProt Q00534+P24385)
GSG2 (human) = GSG2 (human) (UniProt Q8TF76)

Sequence of SRPK2 (human) (P78362 whole entry, looked up): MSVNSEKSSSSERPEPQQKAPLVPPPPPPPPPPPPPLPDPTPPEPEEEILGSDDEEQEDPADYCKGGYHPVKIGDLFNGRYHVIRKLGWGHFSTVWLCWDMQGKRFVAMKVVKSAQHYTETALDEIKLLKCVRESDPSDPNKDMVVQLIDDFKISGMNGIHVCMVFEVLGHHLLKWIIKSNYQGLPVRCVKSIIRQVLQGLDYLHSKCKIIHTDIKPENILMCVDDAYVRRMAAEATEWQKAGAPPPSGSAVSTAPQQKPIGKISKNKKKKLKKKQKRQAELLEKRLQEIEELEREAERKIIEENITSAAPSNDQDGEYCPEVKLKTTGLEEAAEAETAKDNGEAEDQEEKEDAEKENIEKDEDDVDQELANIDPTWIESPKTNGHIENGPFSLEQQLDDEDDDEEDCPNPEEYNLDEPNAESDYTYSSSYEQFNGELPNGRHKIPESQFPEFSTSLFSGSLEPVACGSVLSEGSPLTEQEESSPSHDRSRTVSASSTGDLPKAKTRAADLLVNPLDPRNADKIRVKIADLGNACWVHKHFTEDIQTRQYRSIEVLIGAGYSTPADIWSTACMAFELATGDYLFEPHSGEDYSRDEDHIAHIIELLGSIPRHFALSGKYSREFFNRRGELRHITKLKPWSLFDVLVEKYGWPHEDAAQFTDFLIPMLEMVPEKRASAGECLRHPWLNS
Sequence of MYLK (human) (Q15746 whole entry, looked up): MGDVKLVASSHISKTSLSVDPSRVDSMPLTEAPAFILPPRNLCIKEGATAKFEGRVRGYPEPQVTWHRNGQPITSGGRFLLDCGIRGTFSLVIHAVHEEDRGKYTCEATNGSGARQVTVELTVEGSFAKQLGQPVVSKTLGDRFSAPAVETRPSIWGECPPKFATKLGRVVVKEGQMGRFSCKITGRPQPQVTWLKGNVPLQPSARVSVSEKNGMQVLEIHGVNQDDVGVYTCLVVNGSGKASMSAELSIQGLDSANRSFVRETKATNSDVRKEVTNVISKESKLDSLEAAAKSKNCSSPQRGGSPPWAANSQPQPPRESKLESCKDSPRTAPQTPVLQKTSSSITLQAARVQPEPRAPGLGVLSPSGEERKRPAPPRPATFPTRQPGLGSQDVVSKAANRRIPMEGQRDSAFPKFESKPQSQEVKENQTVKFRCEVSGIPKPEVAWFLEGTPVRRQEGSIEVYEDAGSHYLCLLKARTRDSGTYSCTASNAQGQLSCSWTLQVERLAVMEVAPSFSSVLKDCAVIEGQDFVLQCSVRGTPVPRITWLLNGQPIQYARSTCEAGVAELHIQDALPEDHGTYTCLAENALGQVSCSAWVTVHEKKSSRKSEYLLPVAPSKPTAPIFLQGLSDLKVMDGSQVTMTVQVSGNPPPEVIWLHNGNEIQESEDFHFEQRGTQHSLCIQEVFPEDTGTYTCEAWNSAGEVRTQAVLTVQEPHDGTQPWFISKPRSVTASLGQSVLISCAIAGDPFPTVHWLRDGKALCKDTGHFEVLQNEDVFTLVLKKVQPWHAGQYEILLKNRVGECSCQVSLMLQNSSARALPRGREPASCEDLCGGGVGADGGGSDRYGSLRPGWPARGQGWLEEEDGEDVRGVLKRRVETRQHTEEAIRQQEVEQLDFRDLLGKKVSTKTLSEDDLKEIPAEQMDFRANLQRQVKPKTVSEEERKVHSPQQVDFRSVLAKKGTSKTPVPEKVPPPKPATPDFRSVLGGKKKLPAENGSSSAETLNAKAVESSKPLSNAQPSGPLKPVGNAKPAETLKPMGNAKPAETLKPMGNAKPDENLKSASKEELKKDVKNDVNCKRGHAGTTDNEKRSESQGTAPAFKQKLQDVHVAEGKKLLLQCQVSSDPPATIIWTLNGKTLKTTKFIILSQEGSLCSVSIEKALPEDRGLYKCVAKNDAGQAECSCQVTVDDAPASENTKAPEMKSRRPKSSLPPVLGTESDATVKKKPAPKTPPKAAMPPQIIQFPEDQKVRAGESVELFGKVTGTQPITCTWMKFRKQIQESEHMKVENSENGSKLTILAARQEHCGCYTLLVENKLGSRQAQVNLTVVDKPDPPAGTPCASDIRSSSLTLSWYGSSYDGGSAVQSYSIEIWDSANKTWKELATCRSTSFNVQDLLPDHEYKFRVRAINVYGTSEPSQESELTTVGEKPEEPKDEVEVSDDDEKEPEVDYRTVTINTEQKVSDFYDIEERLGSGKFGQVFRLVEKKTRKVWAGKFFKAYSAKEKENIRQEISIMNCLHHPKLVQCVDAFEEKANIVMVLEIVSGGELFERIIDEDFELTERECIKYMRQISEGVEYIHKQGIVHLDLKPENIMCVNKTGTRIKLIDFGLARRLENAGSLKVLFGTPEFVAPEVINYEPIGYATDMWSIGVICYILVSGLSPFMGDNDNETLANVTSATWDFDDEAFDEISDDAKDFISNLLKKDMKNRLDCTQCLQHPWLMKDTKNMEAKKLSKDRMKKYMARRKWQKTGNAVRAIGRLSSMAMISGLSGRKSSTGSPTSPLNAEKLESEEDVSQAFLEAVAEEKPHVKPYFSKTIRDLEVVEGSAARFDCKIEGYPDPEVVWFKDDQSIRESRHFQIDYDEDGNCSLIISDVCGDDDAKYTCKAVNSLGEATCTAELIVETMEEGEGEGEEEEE
Sequence of AXL (human) (P30530 whole entry, looked up): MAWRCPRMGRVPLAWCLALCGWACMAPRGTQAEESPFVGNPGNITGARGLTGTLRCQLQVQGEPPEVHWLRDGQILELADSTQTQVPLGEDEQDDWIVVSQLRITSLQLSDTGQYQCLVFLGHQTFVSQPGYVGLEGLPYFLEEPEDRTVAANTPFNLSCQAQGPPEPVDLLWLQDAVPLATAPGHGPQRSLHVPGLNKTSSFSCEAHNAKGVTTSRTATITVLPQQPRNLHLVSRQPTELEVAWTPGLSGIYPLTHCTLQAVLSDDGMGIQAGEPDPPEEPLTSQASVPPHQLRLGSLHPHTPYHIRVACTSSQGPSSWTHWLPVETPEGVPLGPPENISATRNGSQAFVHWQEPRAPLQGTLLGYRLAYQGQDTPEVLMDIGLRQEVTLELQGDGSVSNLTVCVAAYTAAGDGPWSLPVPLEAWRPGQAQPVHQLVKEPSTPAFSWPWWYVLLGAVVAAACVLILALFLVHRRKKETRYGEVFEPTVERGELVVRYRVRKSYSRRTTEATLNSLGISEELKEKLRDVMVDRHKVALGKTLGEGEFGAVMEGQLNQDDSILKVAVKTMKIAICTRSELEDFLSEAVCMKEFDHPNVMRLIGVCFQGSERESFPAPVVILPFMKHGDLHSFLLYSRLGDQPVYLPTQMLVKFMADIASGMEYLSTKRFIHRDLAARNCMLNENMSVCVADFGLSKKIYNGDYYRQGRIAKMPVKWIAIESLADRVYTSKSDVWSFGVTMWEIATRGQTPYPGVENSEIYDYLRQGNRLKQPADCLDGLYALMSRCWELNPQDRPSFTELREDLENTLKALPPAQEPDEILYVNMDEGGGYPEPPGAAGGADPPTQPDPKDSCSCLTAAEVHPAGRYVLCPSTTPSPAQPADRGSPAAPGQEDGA
Sequence of CAMK2A (human) (Q9UQM7 whole entry, looked up): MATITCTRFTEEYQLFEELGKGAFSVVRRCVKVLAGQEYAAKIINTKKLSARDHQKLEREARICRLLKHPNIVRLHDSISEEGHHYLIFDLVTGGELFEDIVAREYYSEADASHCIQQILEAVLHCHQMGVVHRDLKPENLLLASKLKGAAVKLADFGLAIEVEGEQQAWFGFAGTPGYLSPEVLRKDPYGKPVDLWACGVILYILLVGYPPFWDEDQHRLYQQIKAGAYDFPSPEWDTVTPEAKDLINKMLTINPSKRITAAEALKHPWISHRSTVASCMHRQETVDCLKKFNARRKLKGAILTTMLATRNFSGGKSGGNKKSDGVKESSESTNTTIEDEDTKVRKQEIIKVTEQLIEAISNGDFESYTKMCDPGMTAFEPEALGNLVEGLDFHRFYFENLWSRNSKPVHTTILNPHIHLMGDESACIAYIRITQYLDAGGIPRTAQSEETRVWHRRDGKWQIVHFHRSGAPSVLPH
Sequence of PAK4 (human) (O96013 whole entry, looked up): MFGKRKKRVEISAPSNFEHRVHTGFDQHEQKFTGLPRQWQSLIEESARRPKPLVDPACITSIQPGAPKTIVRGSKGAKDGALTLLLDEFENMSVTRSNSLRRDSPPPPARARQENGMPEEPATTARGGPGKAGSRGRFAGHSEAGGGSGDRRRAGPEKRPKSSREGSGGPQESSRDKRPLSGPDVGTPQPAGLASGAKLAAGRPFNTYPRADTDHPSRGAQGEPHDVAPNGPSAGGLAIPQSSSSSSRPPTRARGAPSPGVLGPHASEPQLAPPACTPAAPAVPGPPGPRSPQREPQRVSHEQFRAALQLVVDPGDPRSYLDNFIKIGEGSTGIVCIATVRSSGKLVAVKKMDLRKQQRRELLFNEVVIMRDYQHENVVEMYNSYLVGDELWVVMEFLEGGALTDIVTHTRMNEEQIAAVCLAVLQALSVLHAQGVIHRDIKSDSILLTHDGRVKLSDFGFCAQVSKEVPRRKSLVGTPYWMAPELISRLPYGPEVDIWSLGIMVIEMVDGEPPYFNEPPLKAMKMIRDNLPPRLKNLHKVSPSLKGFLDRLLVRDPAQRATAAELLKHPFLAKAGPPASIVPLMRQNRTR
Sequence of PHKG2 (human) (P15735 whole entry, looked up): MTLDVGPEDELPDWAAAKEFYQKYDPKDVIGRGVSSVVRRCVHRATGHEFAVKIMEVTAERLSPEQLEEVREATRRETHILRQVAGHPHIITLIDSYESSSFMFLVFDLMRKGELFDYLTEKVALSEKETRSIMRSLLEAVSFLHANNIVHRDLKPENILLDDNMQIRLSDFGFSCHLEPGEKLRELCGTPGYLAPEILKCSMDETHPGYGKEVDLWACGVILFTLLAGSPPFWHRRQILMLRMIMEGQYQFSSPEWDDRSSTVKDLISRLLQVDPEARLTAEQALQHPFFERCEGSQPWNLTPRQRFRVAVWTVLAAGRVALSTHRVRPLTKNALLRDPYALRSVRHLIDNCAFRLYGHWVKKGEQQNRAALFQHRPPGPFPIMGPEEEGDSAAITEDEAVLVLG

COc1cc2ncnc(Nc3cccc(Cl)c3)c2cc1OC
residual activity (NUAK2 (human)): 142%
residual activity (CAMK2A (human)): 98.2%
residual activity (ALK (human)): 91.5%
residual activity (STK3 (human)): 124%
residual activity (PIM1 (human)): 91.5%
residual activity (MATK (human)): 103%
residual activity (STK17A (human)): 95.4%
residual activity (PAK6 (human)): 81.6%
residual activity (DYRK2 (human)): 84.6%
residual activity (CLK2 (human)): 89.6%
residual activity (HIPK4 (human)): 64.4%
residual activity (RPS6KB2 (human)): 105%
residual activity (GRK7 (human)): 85.4%
residual activity (KIT (human)): 94%
residual activity (PHKG2 (human)): 92.6%
residual activity (MKNK2 (human)): 39.5%
residual activity (ZAP70 (human)): 102%
residual activity (EPHA4 (human)): 81.7%
residual activity (BRAF (human)): 96%
residual activity (CDK6 CCND3 (human)): 90.1%
residual activity (RPS6KA3 KD1 KD2 (human)): 87.8%
residual activity (AURKB (human)): 74.4%
residual activity (CHEK2 (human)): 79.7%
residual activity (DMPK (human)): 102%
residual activity (TXK (human)): 75%
residual activity (SRPK2 (human)): 88.2%
residual activity (EGFR (human)): 0.718%
residual activity (VRK1 (human)): 105%
residual activity (NLK (human)): 83.1%
residual activity (AXL (human)): 95.3%
residual activity (BTK (human)): 76.7%
residual activity (MYLK (human)): 89%
residual activity (ULK1 (human)): 84.7%
residual activity (CDC42BPA (human)): 82.2%
residual activity (PKN2 (human)): 89.8%
residual activity (MAPK14 (human)): 107%
residual activity (MELK (human)): 81.8%
residual activity (PAK4 (human)): 76.5%
residual activity (TAOK3 (human)): 90.4%
residual activity (CDK6 CCND1 (human)): 92.5%
residual activity (GSG2 (human)): 84.8%
